Test results from the NIST ThermoML archive (doi:10.1021/je800497u).

Columns and labels:
[1] = 101 kPa, Liquid
[2] = xn = mol fraction of the nth substance listed; settings: 101 kPa, Liquid

CCCCCCCCCCCO [1-undecanol]
[1]
Settings	mass density [kg/m3]	viscosity [mPa·s]
293.15 K	832.5	17.18
298.15 K	829	14.02

CCCCCCCCCCCO [1-undecanol] + CCCCCCCCCO
[2]
Settings	mass density, 293.15 K [kg/m3]	mass density, 298.15 K [kg/m3]	viscosity, 293.15 K [mPa·s]	viscosity, 298.15 K [mPa·s]
x2 = 0	832.5	829	17.18	14.02
x2 = 0.1177	831.4	827.9	16.86	13.84
x2 = 0.248	830.8	827.4	16.21	13.3
x2 = 0.3116	830.5	827.1	15.57	12.72
x2 = 0.4007	830.2	826.8	15.49	12.68
x2 = 0.5017	829.8	826.4	14.66	12.03
x2 = 0.6004	829.4	826	13.83	11.33
x2 = 0.6921	829	825.6	13.5	11.12
x2 = 0.7943	828.6	825.2	12.79	10.55
x2 = 0.8915	828.1	824.7	12.06	9.982

CCCCCCCCCCCO [1-undecanol] + CCCCCCCO
[2]
Settings	mass density, 293.15 K [kg/m3]	mass density, 298.15 K [kg/m3]	viscosity, 293.15 K [mPa·s]	viscosity, 298.15 K [mPa·s]
x2 = 0	832.5	829	17.18	14.02
x2 = 0.1245	830.7	827.3	16.37	13.36
x2 = 0.2254	830	826.6	14.96	12.26
x2 = 0.2988	829.4	826	13.79	11.3
x2 = 0.4142	828.4	825	12.93	10.66
x2 = 0.5086	827.6	824.2	11.83	9.79
x2 = 0.5895	826.8	823.4	10.82	8.971
x2 = 0.6993	825.7	822.3	9.924	8.253
x2 = 0.7866	824.8	821.3	8.997	7.511
x2 = 0.8888	823.6	820.2	8.005	6.711

CCCCCCCCCCCO [1-undecanol] + CCCCCO
[2]
Settings	mass density, 293.15 K [kg/m3]	mass density, 298.15 K [kg/m3]	viscosity, 293.15 K [mPa·s]	viscosity, 298.15 K [mPa·s]
x2 = 0	832.5	829	17.18	14.02
x2 = 0.1218	830.3	826.9	15.92	13.04
x2 = 0.2312	829.1	825.7	13.84	11.4
x2 = 0.3167	828	824.6	12.28	10.14
x2 = 0.4002	826.9	823.5	11.17	9.277
x2 = 0.5076	825.2	821.8	9.516	7.956
x2 = 0.6003	823.7	820.3	8.205	6.902
x2 = 0.6977	822	818.5	6.943	5.846
x2 = 0.7982	819.8	816.3	5.804	4.908
x2 = 0.8954	817.5	813.9	4.87	4.16

CCCCCCCCCCCO [1-undecanol] + CCCO
[2]
Settings	mass density, 293.15 K [kg/m3]	mass density, 298.15 K [kg/m3]	viscosity, 293.15 K [mPa·s]	viscosity, 298.15 K [mPa·s]
x2 = 0	832.5	829	17.18	14.02
x2 = 0.1283	830.7	827.3	15.08	12.37
x2 = 0.2079	829.6	826.2	13.44	11.11
x2 = 0.3145	827.9	824.4	11.56	9.558
x2 = 0.4057	826.1	822.6	10.06	8.394
x2 = 0.5075	824	820.5	8.321	6.998
x2 = 0.6096	821.3	817.7	6.814	5.804
x2 = 0.6937	818.7	815.1	5.634	4.823
x2 = 0.7922	815	811.4	4.399	3.808
x2 = 0.8907	810.3	806.5	3.274	2.857

CCCCCCCO [heptan-1-ol] + CCCCCCCCCCCO
[2], x1 = 1
Settings	mass density [kg/m3]	viscosity [mPa·s]
293.15 K	822.2	7.104
298.15 K	818.7	5.993

CCCCCCCO [heptan-1-ol] + CCCCCCCCCO
[2], x1 = 1
Settings	mass density [kg/m3]	viscosity [mPa·s]
293.15 K	822.2	7.104
298.15 K	818.7	5.993

CCCCCCCO [heptan-1-ol] + CCCCCO
[2]
Settings	mass density, 293.15 K [kg/m3]	mass density, 298.15 K [kg/m3]	viscosity, 293.15 K [mPa·s]	viscosity, 298.15 K [mPa·s]
x2 = 0	822.2	818.7	7.104	5.993
x2 = 0.123	821.4	818	6.696	5.692
x2 = 0.2117	820.8	817.4	6.374	5.408
x2 = 0.3131	820.2	816.7	6.079	5.158
x2 = 0.4177	819.4	815.9	5.758	4.899
x2 = 0.5088	818.8	815.3	5.421	4.652
x2 = 0.5897	818.2	814.7	5.177	4.431
x2 = 0.6996	817.3	813.8	4.887	4.189
x2 = 0.7885	816.5	812.9	4.651	3.997
x2 = 0.8909	815.6	812	4.287	3.717

CCCCCCCO [heptan-1-ol] + CCCO
[2]
Settings	mass density, 293.15 K [kg/m3]	mass density, 298.15 K [kg/m3]	viscosity, 293.15 K [mPa·s]	viscosity, 298.15 K [mPa·s]
x2 = 0	822.2	818.7	7.104	5.993
x2 = 0.09	821.2	817.7	6.596	5.614
x2 = 0.1795	820.2	816.7	6.08	5.158
x2 = 0.3279	818.2	814.6	5.288	4.519
x2 = 0.4103	816.9	813.3	4.862	4.174
x2 = 0.5058	815.3	811.7	4.282	3.714
x2 = 0.6106	813.5	809.8	3.825	3.342
x2 = 0.6991	811.6	807.9	3.443	3.009
x2 = 0.7989	809.3	805.6	3.011	2.634
x2 = 0.8882	807	803.2	2.643	2.34

CCCCCCCCCO [nonan-1-ol] + CCCCCCCCCCCO
[2], x1 = 1
Settings	mass density [kg/m3]	viscosity [mPa·s]
293.15 K	827.9	11.68
298.15 K	824.4	9.671

CCCCCCCCCO [nonan-1-ol] + CCCCCCCO
[2]
Settings	mass density, 293.15 K [kg/m3]	mass density, 298.15 K [kg/m3]	viscosity, 293.15 K [mPa·s]	viscosity, 298.15 K [mPa·s]
x2 = 0	827.9	824.4	11.68	9.671
x2 = 0.1181	827	823.6	11.16	9.249
x2 = 0.2245	826.6	823.2	10.56	8.777
x2 = 0.307	826.2	822.8	10.02	8.328
x2 = 0.4093	825.7	822.3	9.551	7.951
x2 = 0.5045	825.1	821.7	9.146	7.628
x2 = 0.5969	824.7	821.2	8.61	7.211
x2 = 0.6924	824.2	820.7	8.347	6.976
x2 = 0.7866	823.6	820.2	7.968	6.662
x2 = 0.8883	823	819.5	7.439	6.266

CCCCCCCCCO [nonan-1-ol] + CCCCCO
[2]
Settings	mass density, 293.15 K [kg/m3]	mass density, 298.15 K [kg/m3]	viscosity, 293.15 K [mPa·s]	viscosity, 298.15 K [mPa·s]
x2 = 0	827.9	824.4	11.68	9.671
x2 = 0.1155	826.6	823.1	10.72	8.891
x2 = 0.2155	825.6	822.2	9.71	8.083
x2 = 0.3161	824.5	821.1	8.734	7.313
x2 = 0.4052	823.6	820.1	8.071	6.815
x2 = 0.5066	822.4	818.9	7.27	6.128
x2 = 0.6079	821	817.5	6.582	5.55
x2 = 0.7036	819.6	816.1	5.898	5.017
x2 = 0.7935	818.2	814.7	5.192	4.473
x2 = 0.8913	816.6	813	4.631	3.976

CCCCCCCCCO [nonan-1-ol] + CCCO
[2]
Settings	mass density, 293.15 K [kg/m3]	mass density, 298.15 K [kg/m3]	viscosity, 293.15 K [mPa·s]	viscosity, 298.15 K [mPa·s]
x2 = 0	827.9	824.4	11.68	9.671
x2 = 0.0808	826.5	823.1	10.86	9.007
x2 = 0.2286	824.6	821.2	9.037	7.55
x2 = 0.3296	823.1	819.6	7.921	6.701
x2 = 0.4104	821.7	818.2	7.097	6.002
x2 = 0.5176	819.5	816	6.051	5.147
x2 = 0.6051	817.6	814	5.268	4.513
x2 = 0.6801	815.5	811.9	4.501	3.904
x2 = 0.7961	811.9	808.3	3.583	3.129
x2 = 0.8945	808.3	804.5	2.9	2.554

CCCCCO [pentan-1-ol] + CCCCCCCCCCCO
[2], x1 = 1
Settings	mass density [kg/m3]	viscosity [mPa·s]
293.15 K	814.6	4.029
298.15 K	811	3.494

CCCCCO [pentan-1-ol] + CCCCCCCCCO
[2], x1 = 1
Settings	mass density [kg/m3]	viscosity [mPa·s]
293.15 K	814.6	4.029
298.15 K	811	3.494

CCCCCO [pentan-1-ol] + CCCCCCCO
[2], x1 = 1
Settings	mass density [kg/m3]	viscosity [mPa·s]
293.15 K	814.6	4.029
298.15 K	811	3.494

CCCCCO [pentan-1-ol] + CCCO
[2]
Settings	mass density, 293.15 K [kg/m3]	mass density, 298.15 K [kg/m3]	viscosity, 293.15 K [mPa·s]	viscosity, 298.15 K [mPa·s]
x2 = 0	814.6	811	4.029	3.494
x2 = 0.0959	813.7	810.1	3.825	3.325
x2 = 0.2143	812.8	809.1	3.584	3.126
x2 = 0.2969	812	808.4	3.446	3.008
x2 = 0.4097	810.9	807.2	3.214	2.828
x2 = 0.5053	809.9	806.2	3.072	2.695
x2 = 0.5963	809	805.2	2.908	2.537
x2 = 0.6924	807.8	804	2.758	2.402
x2 = 0.7892	806.6	802.8	2.582	2.283
x2 = 0.8797	805.4	801.5	2.442	2.126

CCCO [propan-1-ol] + CCCCCCCCCCCO
[2], x1 = 1
Settings	mass density [kg/m3]	viscosity [mPa·s]
293.15 K	803.5	2.272
298.15 K	799.6	1.966

CCCO [propan-1-ol] + CCCCCCCCCO
[2], x1 = 1
Settings	mass density [kg/m3]	viscosity [mPa·s]
293.15 K	803.5	2.272
298.15 K	799.6	1.966

CCCO [propan-1-ol] + CCCCCCCO
[2], x1 = 1
Settings	mass density [kg/m3]	viscosity [mPa·s]
293.15 K	803.5	2.272
298.15 K	799.6	1.966

CCCO [propan-1-ol] + CCCCCO
[2], x1 = 1
Settings	mass density [kg/m3]	viscosity [mPa·s]
293.15 K	803.5	2.272
298.15 K	799.6	1.966
